The results in this text go back to patent US7897606B2, “5,6-di-substituted oxadiazolopyrazines and thiadiazolopyrazines as CXC-chemokine receptor ligands” (Schering Corporation, priority 2005, dated 2011).

SMILES strings stand for the structures.

One assay concerns the target T1, CXCR2 (Homo sapiens, UniProt P25025).
T1 construct: purchased Biosignal; host or cells: CHO cells overexpressing hCXCR2 (membranes)
T1 sequence (P25025 1-360): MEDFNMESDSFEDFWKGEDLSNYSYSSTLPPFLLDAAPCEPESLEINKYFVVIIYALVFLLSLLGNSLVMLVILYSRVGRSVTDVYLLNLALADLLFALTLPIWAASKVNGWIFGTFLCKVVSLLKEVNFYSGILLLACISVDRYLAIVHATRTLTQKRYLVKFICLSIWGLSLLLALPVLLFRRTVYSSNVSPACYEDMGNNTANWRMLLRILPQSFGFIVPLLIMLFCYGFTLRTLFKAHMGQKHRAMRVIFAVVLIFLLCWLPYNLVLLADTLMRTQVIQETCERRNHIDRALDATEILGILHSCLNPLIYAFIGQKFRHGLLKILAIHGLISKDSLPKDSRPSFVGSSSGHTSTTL
The experiment in a line: CXCR2 SPA receptor binding assay. As to the method: For each well of a 96 well plate, a reaction mixture of 4 μg hCXCR2-CHO overexpressing membranes (Biosignal) and 200 μg/well WGA-SPA beads (Amersham) in 100 μl can be prepared in CXCR2 assay buffer (25 mM HEPES, pH 7.4, 2 mM CaCl2, 1 mM MgCl2). A 0.4 nM stock of ligand, [125I]-IL-8 (NEN), can be prepared in the CXCR2 assay buffer. 20× stock solutions of test compounds can be prepared in DMSO (Sigma). A 6× stock solution of GRO-α (R&D) can be prepared in CXCR2 assay buffer. The above solutions can be added to a 96-well assay plate (PerkinElmer or Corning) as follows: 10 μl test compound or DMSO, 40 ul CXCR2 assay buffer or GRO-α stock, 100 μl of reaction mixture, 50 μl of ligand stock (Final [Ligand]=0.1 nM). When 40× stock solutions of test compounds in DMSO can be prepared, then the above protocol can be used except instead 5 μl test compound or DMSO and 45 μl CXCR2 assay buffer can be used. The assay plates can be shaken for 5 minutes on a plate shaker, then incubated for 2-8 hours before cpm/well can be determined in Microbeta Trilux counter (PerkinElmer). % Inhibition of total binding minus non-specific binding (250 nM Gro-α or 50 μM antagonist) can be determined and IC50 values can be calculated.

The next assay concerns the target T2, CXCR1 (Homo sapiens, UniProt P25024).
T2 construct: purchased Biosignal; host or cells: CHO cells overexpressing hCXCR1 (membranes)
T2 sequence (P25024 1-350): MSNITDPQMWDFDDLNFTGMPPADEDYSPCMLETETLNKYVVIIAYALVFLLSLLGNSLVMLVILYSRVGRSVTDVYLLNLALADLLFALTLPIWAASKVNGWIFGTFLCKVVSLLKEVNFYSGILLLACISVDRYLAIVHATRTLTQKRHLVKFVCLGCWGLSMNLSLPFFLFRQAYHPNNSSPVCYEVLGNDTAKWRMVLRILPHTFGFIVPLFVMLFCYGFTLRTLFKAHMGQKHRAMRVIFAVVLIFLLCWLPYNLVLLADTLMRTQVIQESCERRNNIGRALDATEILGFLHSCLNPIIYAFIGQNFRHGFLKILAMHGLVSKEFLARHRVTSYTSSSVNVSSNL
The assay can be described thus: CXCR1 SPA receptor binding assay. How it is done: For each well of a 96 well plate, a reaction mixture of 10 μg hCXCR1-CHO overexpressing membranes (Biosignal) and 200 μg/well WGA-SPA beads (Amersham) in 100 μl can be prepared in CXCR1 assay buffer (25 mM HEPES, pH 7.8, 2 mM CaCl2, 1 mM MgCl2, 125 mM NaCl, 0.1% BSA) (Sigma). A 0.4 nM stock of ligand, [125I]-IL-8 (NEN) can be prepared in the CXCR1 assay buffer. 20× stock solutions of test compounds can be prepared in DMSO (Sigma). A 6× stock solution of IL-8 (R&D) can be prepared in CXCR2 assay buffer. The above solutions can be added to a 96-well assay plate (PerkinElmer) as follows: 10 μl test compound or DMSO, 40 μl CXCR1 assay buffer or IL-8 stock, 100 μl of reaction mixture, 50 μl of ligand stock (Final [Ligand]=0.1 nM). The assay plates can be shaken for 5 minutes on plate shaker, then incubated for 8 hours before cpm/well can be determined in Microbeta Trilux counter (PerkinElmer). % Inhibition of Total binding-NSB (250 nM IL-8) can be determined for IC50 values.

Usually Ki stands for the equilibrium dissociation constant of an inhibitor or competing ligand from its target. The low end stands for higher affinity, the high end for lower affinity. For `CC[C@@H](Nc1nc2nonc2nc1Nc1cccc(C(=O)N(C)C)c1O)c1ccc(C)o1` [Compound 4], the Ki at CXCR2 is 196 nM; on CXCR1, 4220 nM.
